{"source": "patent US20260308158A1", "about": "“TARGETING RNAS ASSOCIATED WITH TAUOPATHIES WITH SMALL MOLECULES” (University of Florida Research Foundation, Incorporated, priority 2023, published 2026)", "key": {"WT tau RNA duplex": {"tested_on": "WT tau RNA duplex", "assay": "NMR spectral analysis (WaterLOGSY, 1D, 2D NOESY) with WT tau duplex", "assay_type": "binding", "procedure": "Preparation of NMR Samples. Two duplex-forming oligoribonucleotides r (5′-[…]-3′ (SEQ ID NO: 3))+r(5′[…]-3′ (SEQ ID NO: 4)) were designed to mimic the stem of the tau wild type (WT) hairpin. Individual RNA oligonucleotides were combined in 400 μL of NMR Buffer [10 mM KH2PO4/K2HPO4, pH 6.0 and 0.5 mM EDTA] in H2O or 100% D2O with a final RNA duplex concentration of 15 μM for WaterLOGSY experiments, […] was added to 5% (v/v) to provide a lock signal. RNA samples were annealed by heating to 95° C. for 3 min, followed by slow cooling to room temperature before being added to Shigemi NMR tubes (Shigemi, Inc.). Compound of interest was added to a final compound: RNA molar ratio of 20.0 for WaterLOGSY experiments, 2.0 for 1D ^1H H2O experiments, and 1.5 for 2D ^1NOESY experiments.\nNMR Spectroscopy. NMR spectra were acquired on Bruker Avance III 600 and 700 MHz spectrometers equipped with cryoprobes. WaterLOGSY spectra were acquired at 298 K, 1D NMR spectra of samples in 95% H2O/5% D2O were acquired at 283 K, and 2D NOESY spectra in 100% D2O were acquired at 308 K. For 1D spectra of samples in 95% H2O/5% D2O, an excitation sculpting sequence during acquisition suppressed the water signal. Proton chemical shifts were referenced internally to the frequency of water. WaterLOGSY and 1D ^1H spectra were processed using Bruker TopSpin and 2D NMR spectra were processed with NMRPipe^1 and assigned with SPARKY^2."}, "WT SRE RNA": {"tested_on": "WT SRE RNA", "assay": "In vitro competitive Chem-CLIP (C-Chem-CLIP), WT SRE RNA", "details": "3 at 1.5 μM, read-out: IC50, competition of the binding of 3", "procedure": "In Vitro Chemical Cross-linking and Isolation by Pull Down (Chem-CLIP) and Competitive Chem-CLIP (C-Chem-CLIP). Growth medium [Dulbecco's modified eagle medium (DMEM; corning, 10-013-CM) with 1× Glutagro (corning)] and 10% (v/v) fetal bovine serum (FBS; Sigma, 12003C) was inactivated by heating at 95° C. for 15 min and slowly cooling to room temperature. Approximately 10,000 counts of 32P 5′-end labeled tau WT, DDPAC, WT+I17T, or DDPAC+I17T RNA were folded in 10 μL growth medium by heating at 65° C. for 5 min and slowly cooling to room temperature. Chem-CLIP probe 3 or negative control probe 4 was then added into the folded RNA in a total volume of 20 μL, and the mixtures were incubated at 37° C. for 1 h. For C-Chem-CLIP, dilutions of competing compound 2 were incubated with RNA for 30 min before adding 3. […]\nThe Chem-CLIP probe 3 or control probe 4 was then clicked to disulfide biotin azide (2 μL of 10 mM solution prepared in DMSO solution per sample; Click Chemistry Tools, catalog no. 1168-10). […] The radioactive signal from bound RNAs (on the beads) and unbound RNAs (in the wash buffer) was measured by using a Beckman Coulter LS6500 Liquid Scintillation Counter as Rbound and Runbound. Enrichment was calculated as the percentage of radiolabeled RNA captured by beads calculated as Rbound/(Rbound+Runbound)."}, "DDPAC I17T model RNA": {"tested_on": "DDPAC I17T model RNA", "assay": "Optical melting, DDPAC I17T RNA", "assay_type": "binding", "details": "2 at 1.5 μM", "procedure": "Optical Melting Experiments. The thermal stabilities of WT, DDPAC, and DDPAC+I17T model RNAs were analyzed by optical melting in the presence or absence of compound 1 or 2 as previously described.^18 The RNAs (2 μM) were heated to 95° C. in 1×PBS buffer and slowly cooled to room temperature. The samples were then cooled to 15° C. in the presence of compound 1 (10 μM; 0.1% (v/v) DMSO), 2 (1.5 μM; 0.1% (v/v) DMSO) or vehicle (0.1% (v/v) DMSO) and then heated to 85° C. at a rate of 1° C. per min. Absorbance as a function of temperature was measured at 260 nm using a Beckman Coulter DU800 UV/vis spectrophotometer. Melting curves were fitted with MeltWin 3.5.^31"}, "WT mice": {"tested_on": "WT mice", "assay": "Nesting activity, WT mice", "assay_type": "in vivo, mouse", "procedure": "Nesting Activity. From Day 1 to Day 20, mice were individually housed and nesting material from the previous day was removed. An intact 3.0 g nestlet was placed within each cage. Around 15 h later, the resulting nest was photographed for qualitative scoring, and the untorn nestlet was weighed if present. All nest images and weights were analyzed by a blinded individual and based on published criteria.^43 In brief, nesting is scored on a rating scale of 1-5 where if the nestlet is over 90% intact, it is given a nestlet score is 1 (Poor; FIG. 4C). When the nestlet is partially torn but >50% remains, the nestlet score is 2; a score of 3 is assigned when 50-90% of the nestlet is torn but spread around the cage and no identifiable nest site is found (Medium; FIG. 4C). When more than 90% of the nestlet is torn and the nest is identifiable but flat, the nestlet score is 4. When a near perfect nest is built and the wall is higher than the mouse's body, it is assigned a nestlet score of 5 (Good; FIG. 4C)."}}, "data": [{"smiles": "COc1cc(N)ncc1CCCN(C)CCCn1cnc2c3ccccc3n(C)c2c1=O", "note": "[Compound 2, 3-(3-((3-(6-amino-4-methoxypyridin-3-yl)propyl)(methyl)amino)propyl)-5-methyl-3,5-dihydro-4H-pyrimido[5,4-b]indol-4-one]", "values": [{"measurement": "WaterLOGSY on addition of RNA", "setting": "WT tau RNA duplex; 300 μM of 2, WT tau duplex, 298 K", "value": "changed the sign of the NOE, resulting in the appearance of negative peaks"}, {"measurement": "RNA 1D 1H (imino proton) spectrum on addition of compound", "setting": "WT tau RNA duplex; 0.5-2.0 equivalents of 2", "value": "dose dependent changes in the RNA's 1D ^1H spectrum"}, {"measurement": "NOE between compound and RNA", "setting": "WT tau RNA duplex; 2D NOESY, 400 ms mixing time, 35° C.", "value": "A single NOE was observed from H5/H6 of the compound to G17H1′"}, {"measurement": "IC50", "setting": "WT SRE RNA", "value": "~2", "unit": "µM"}, {"measurement": "effect on Tm", "setting": "DDPAC I17T model RNA", "value": "no effect on the Tm"}, {"measurement": "nesting behavior vs no treatment", "setting": "WT mice; 20 days, 100 mg/kg p.o. q.o.d.", "value": "no significant difference in nesting behavior"}, {"measurement": "nest score at Day 20", "setting": "WT mice; scale 1-5, 100 mg/kg p.o. q.o.d.", "value": "4.1±0.2"}, {"measurement": "average nest score over time", "setting": "WT mice; scale 1-5, over 20 days, 100 mg/kg p.o. q.o.d.", "value": "3.7-4.3"}]}]}
